Drawing on patent publication US20160137639A1, “TRIAZOLE-ISOXAZOLE COMPOUND AND MEDICAL USE THEREOF” (JAPAN TOBACCO INC., priority 2012, published 2016), this text covers EC50 for 44 compounds.

Test [1] deals with T1, mouse RORγ (Mus musculus, UniProt P51450).
T1 construct: mouse, NM_011281.2 and from Ile251 to Lys516; expressed in transfected cells; host or cells: CHO cells (transient co-transfection with pG5-Luc reporter)
T1 sequence (P51450 251-516): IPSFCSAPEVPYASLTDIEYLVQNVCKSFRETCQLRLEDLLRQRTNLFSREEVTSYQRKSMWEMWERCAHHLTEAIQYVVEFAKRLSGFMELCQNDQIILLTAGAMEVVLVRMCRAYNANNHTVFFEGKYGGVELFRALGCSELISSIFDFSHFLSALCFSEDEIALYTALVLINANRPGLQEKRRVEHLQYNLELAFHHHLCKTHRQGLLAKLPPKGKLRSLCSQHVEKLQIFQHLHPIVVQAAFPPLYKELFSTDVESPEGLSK
Put plainly: Luciferase reporter gene assay of inhibitory effect against RORγ transcriptional activity (GAL4-mRORγ plasmid in CHO cells). Format: cell-based. Conditions: read-out: LUC EC50 (μM) mRORg. In outline: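 Readout is intracellular luciferase after 2-day compound exposure (8 concentrations, 0.1% DMSO) in CHO cells expressing GAL4 fused to mouse RORγ LBD residues Ile251–Lys516 plus pG5-Luc reporter. EC50 fitted from %-of-control; points showing resazurin-detected cytotoxicity dropped.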
On the technique in general: A reporter such as luciferase makes a cellular process visible.

The target of test [2] is T2, human RORγ (Homo sapiens, UniProt P51449).
T2 construct: human, NM_005060.3 and from Ser253 to Lys518; expressed in transfected cells; host or cells: CHO cells (transient co-transfection with pG5-Luc reporter)
T2 sequence (P51449 253-518): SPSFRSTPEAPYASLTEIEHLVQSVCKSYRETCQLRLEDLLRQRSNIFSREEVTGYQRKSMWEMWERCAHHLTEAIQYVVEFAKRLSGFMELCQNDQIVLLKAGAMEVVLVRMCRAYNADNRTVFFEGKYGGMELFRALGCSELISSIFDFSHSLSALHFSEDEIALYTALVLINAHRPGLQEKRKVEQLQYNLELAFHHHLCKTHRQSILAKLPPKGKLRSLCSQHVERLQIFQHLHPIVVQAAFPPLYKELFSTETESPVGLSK
The test can be described thus: Luciferase reporter gene assay of inhibitory effect against RORγ transcriptional activity (GAL4-hRORγ plasmid in CHO cells). Format: cell-based. The following applies: read-out: LUC EC50 (μM) hRORg.

Where only a bound is given, the exact number is not on record here.

What is called EC50 is the concentration giving half of the maximal effect. In the case of `COCc1ccc(NC(=O)CCc2nnc(CCC(C)C)n2C2CC2)c(C)c1` [Example F-136], the EC50 in test [1] and in test [2] was more than 3 µM in each case.

Consider `Cc1cc(F)ccc1NC(=O)CCc1nnc(CCC(C)C)n1C1CC1` [Example F-137], for which the EC50 in test [1] was less than 3 µM; in test [2] it was more than 3 µM.

`Cc1cc(Cl)ccc1NC(=O)CCc1nnc(CCC(C)C)n1C1CC1` [Example F-138]: the EC50 was less than 3 µM in test [1] and more than 3 µM in test [2].

As to `CC(C)CCc1nnc(CCC(=O)Nc2nnc3ccccn23)n1C1CC1` [Example F-139], the EC50 in test [1] and in test [2] was more than 3 µM in each case.

`Cc1ccc(Br)cc1NC(=O)CCc1nnc(CCC(C)C)n1C1CC1` [Example F-140]: the concentration for a half-maximal effect (EC50) in test [1] and in test [2] was more than 3 µM in each case.

In the case of `Cc1ccc(NC(=O)CCc2nnc(CCC3CCCCC3)n2CC(F)(F)F)c(C)c1` [Example F-142], the EC50 in test [1] and in test [2] was less than 3 µM in each case.

As for `Cc1ccc(C#N)cc1NC(=O)CCc1nnc(CCC(C)C)n1C1CC1` [Example F-143], the EC50 in test [1] and in test [2] was more than 3 µM in each case.

Consider `Cc1c(Cl)cccc1NC(=O)CCc1nnc(COC2CCCCC2)n1C1CC1` [Example F-144], for which the EC50 in test [1] and in test [2] was less than 3 µM in each case.

For the compound `CCc1cccc(NC(=O)CCc2nnc(CCC(C)C)n2C2CC2)c1C` [Example F-147], the concentration for a half-maximal effect (EC50) was less than 3 µM in test [1] and more than 3 µM in test [2].

Turning to `COc1cc(C)ccc1CNC(=O)CCc1nnc(CCC(C)C)n1C1CC1` [Example F-148], the EC50 in test [1] and in test [2] was less than 3 µM in each case.

`Cc1ccc(CNC(=O)CCc2nnc(CCC(C)C)n2C2CC2)c(O)c1` [Example F-149]: the EC50 in test [1] and in test [2] was more than 3 µM each time.

Turning to `CC(C)CCc1nnc(CCC(=O)NCc2cccc3cn[nH]c23)n1C1CC1` [Example F-150], the EC50 in test [1] and in test [2] was more than 3 µM in each case.

Turning to `Cc1ccc(C(F)(F)F)cc1NC(=O)CCc1nnc(CCC(C)C)n1C1CC1` [Example F-151], the EC50 in test [1] and in test [2] was more than 3 µM in each case.

Take `Cc1ccc(C2CC2)cc1NC(=O)CCc1nnc(CCC(C)C)n1C1CC1` [Example F-152]: the EC50 in test [1] and in test [2] was more than 3 µM in each case.

In the case of `CCCc1ccc(C)c(NC(=O)CCc2nnc(CCC(C)C)n2C2CC2)c1` [Example F-153], the EC50 in test [1] and in test [2] was more than 3 µM throughout.

Consider `Cc1ccc(C(N)=O)cc1NC(=O)CCc1nnc(CCC(C)C)n1C1CC1` [Example F-154], for which the EC50 in test [1] and in test [2] was more than 3 µM each time.

Turning to `Cc1c(NC(=O)CCc2nnc(CCC(C)C)n2C2CC2)cccc1C1CC1` [Example F-156], the EC50 is less than 3 µM in test [1] and more than 3 µM in test [2].

As for `Cc1cc(C(N)=O)ccc1NC(=O)CCc1nnc(CCC(C)C)n1C1CC1` [Example F-157], the EC50 in test [1] and in test [2] was more than 3 µM each time.

For the compound `Cc1c(Cl)cccc1NC(=O)CCc1nnc(C#CC(C)C)n1C1CC1` [Example F-158], the EC50 in test [1] was less than 3 µM; in test [2], more than 3 µM.

For the compound `Cc1cc(C#N)ccc1NC(=O)CCc1nnc(CCC(C)C)n1C1CC1` [Example F-161], the 50% effective concentration (EC50) in test [1] and in test [2] was more than 3 µM each time.

On to `Cc1c(Cl)cccc1NC(=O)CCc1nnc(CCOC(C)(C)C)n1C1CC1` [Example F-163], for which the EC50 in test [1] and in test [2] was less than 3 µM in each case.

For `Cc1c(NC(=O)CCc2nnc(CCC(C)C)n2C2CC2)ccc(Cl)c1Cl` [Example F-165], the EC50 in test [1] is less than 3 µM; in test [2], more than 3 µM.

For `Cc1c(Cl)cccc1NC(=O)CCc1nnc(COCc2ccccc2)n1C1CC1` [Example F-166], the results for the EC50 in test [1] and in test [2] were less than 3 µM and more than 3 µM, respectively.

For `Cc1c(Cl)cccc1NC(=O)CCc1nnc(CCN2CCCCC2)n1C1CC1` [Example F-169], the EC50 in test [1] and in test [2] was more than 3 µM in each case.

Regarding `Cc1c(Cl)cccc1NC(=O)CCc1nnc(CCNC(C)C)n1C1CC1` [Example F-171], the EC50 in test [1] and in test [2] was more than 3 µM in each case.

As for `Cc1c(Cl)cccc1NC(=O)CCc1nnc(CCn2cccn2)n1C1CC1` [Example F-172], the EC50 in test [1] and in test [2] was more than 3 µM in each case.

With `COCc1ccc(C)c(NC(=O)CCc2nnc(CCC(C)C)n2C2CC2)c1` [Example F-174], the EC50 in test [1] and in test [2] was more than 3 µM throughout.

In the case of `Cc1c(Cl)cccc1NC(=O)CCc1nnc(CC(=O)OC(C)(C)C)n1C1CC1` [Example F-178], the half-maximal effective concentration (EC50) in test [1] and in test [2] was less than 3 µM throughout.

`COc1ccccc1CNC(=O)CCc1nnc(CCC(C)C)n1C1CC1` [Example F-179]: the EC50 in test [1] and in test [2] was more than 3 µM in each case.

For the compound `Cc1ccc(NCc2nnc(CCC(=O)Nc3cccc(Cl)c3C)n2C2CC2)cc1` [Example F-180], the EC50 is less than 3 µM in test [1] and more than 3 µM in test [2].

On to `Cc1c(Cl)cccc1NC(=O)CCc1nnc(CCCC(C)(C)C)n1C1CC1` [Example F-181], for which the EC50 in test [1] and in test [2] was less than 3 µM throughout.

For the compound `CCOC(=O)CCc1nnc(CCC(=O)Nc2cccc(Cl)c2C)n1C1CC1` [Example F-183], the EC50 in test [1] and in test [2] was more than 3 µM each time.

As for `Cc1c(Cl)cccc1NC(=O)CCc1nnc(CCC(=O)N(C)C)n1C1CC1` [Example F-184], the EC50 in test [1] and in test [2] was more than 3 µM throughout.

Take `Cc1c(Cl)cccc1NC(=O)CCc1nnc(CCC(=O)O)n1C1CC1` [Example F-185]: the EC50 in test [1] and in test [2] was more than 3 µM in each case.

Take `Cc1c(Cl)cccc1NC(=O)CCc1nnc(CCN2CCCCC2=O)n1C1CC1` [Example F-187]: the EC50 in test [1] and in test [2] was more than 3 µM each time.

As for `COc1cc(C)ccc1CNC(=O)CCc1nnc(CCC2CCCCC2)n1C1CC1` [Example F-188], the EC50 in test [1] and in test [2] was less than 3 µM each time.

With `Cc1ccc(O)cc1NC(=O)CCc1nnc(CCC(C)C)n1C1CC1` [Example F-192], the concentration giving a half-maximal response (EC50) in test [1] and in test [2] was more than 3 µM each time.

On to `COc1cc(C)c(Cl)cc1CNC(=O)CCc1nnc(CCC(C)C)n1C1CC1` [Example F-204], for which the half-maximal effective concentration (EC50) in test [1] and in test [2] was more than 3 µM throughout.

In the case of `COc1cc(C)c(C)cc1CNC(=O)CCc1nnc(CCC(C)C)n1C1CC1` [Example F-205], the half-maximal effective concentration (EC50) in test [1] and in test [2] was more than 3 µM in each case.

Turning to `Cc1ccc(NCc2nnc(CCC(=O)Nc3cccc(Cl)c3C)n2C2CC2)c(C)c1` [Example F-206], the EC50 in test [1] and in test [2] was less than 3 µM each time.

Consider `Cc1ccc(NCc2nnc(CCC(=O)Nc3cccc(Cl)c3C)n2C2CC2)cc1C` [Example F-207], for which the EC50 in test [1] and in test [2] was less than 3 µM each time.

Regarding `COc1ccc(F)cc1CNC(=O)CCc1nnc(CCC(C)C)n1C1CC1` [Example F-208], the EC50 in test [1] and in test [2] was more than 3 µM each time.

As for `Cc1c(Cl)cccc1NC(=O)CCc1nnc(CN2C(=O)c3ccccc3C2=O)n1C1CC1` [Example F-209], the EC50 in test [1] and in test [2] was more than 3 µM each time.

`COC(=O)C(C)(C)CCc1nnc(CCC(=O)Nc2cccc(Cl)c2C)n1C1CC1` [Example F-210]: the EC50 in test [1] and in test [2] was less than 3 µM each time.
